3 molecules from patent US8697659B2, “Analogues of glycolipids useful as immunoadjuvants” (Luigi Panza, priority 2007, dated 2014) can be followed below.

Data set [1] has as its system mouse T cell hybridomas FF13. Kind of data set: IL-2 secretion by recognition of glycolipids by a murine NKT cell line (FF13 hybridoma, THP1 hCD1d as APC, ELISA). To be noted: at 10 micromolar; CD1d-transfected THP-1 cells exposed two hours to test compound; IL-2 in medium determined 48 hrs later. It counts as cell-based. On the procedure:
As a measure of T cell activation, IL2 release into the culture medium was determined after 48 hours culture by an ELISA assay. […] The x-axis is amount of glycolipid in μg/ml.
The biological evaluation of compounds of the invention uses mouse Vα14i NKT cells immortalized by cell fusion to give hybridomas FF13 through the presentation by APC (THP1). As a measure of T cell activation, IL2 release into the culture medium was determined after 48 hours culture by an ELISA assay. […]
100 μl FF13 in complete medium were added (10×10^4 per well) and after 48 hours the tests were evaluated for IL2 production.
IL2 concentration is evaluated by ELISA using a primary monoclonal Anti-mouse IL-2 Antibody (R&D System), a biotinylated detection anti-mouse IL-2 Antibody (R&D System) and as color developer SIGMA FAST OPD. […]
FIG. 2 depicts the IL2 levels released by cells that had been treated with compounds 13-16, compared to the effect of alpha-GalCer itself, in an NKT cell hybridoma test. The a-GalCer specific NKT hybridoma cells were added to CD1d-transfected THP-1 cells that had been exposed for two hours to various doses of the test compound (about 0.1 to about 10 μg/mL), and IL-2 levels in the medium were determined 48 hrs later.

The nature of the next data set: Solubility in water. It is filed as physicochemical. On the procedure: In some embodiments, the compounds of the invention have a solubility of at least about 0.5 mg/mL, 1 mg/mL, 2 mg/mL, 5 mg/mL, 7.5 mg/mL, 10 mg/mL, 12.5 mg/mL, 15 mg/mL, 17.5 mg/mL, 20 mg/mL, 25 mg/mL, 30 mg/mL, 40 mg/mL, 50 mg/mL, 75 mg/mL, 100 mg/mL, 150 mg/mL or 200 mg/mL in an aqueous solution.

SMILES strings stand for the structures.

For `CCCCCCCCCCCCCCCCCCCCCCCCCC(=O)N[C@@H](CO[C@H]1OC(CO)[C@H](O)C(O)C1O)[C@H](O)[C@H](O)COCCCc1ccccc1` (stereo partly drawn) [Compound 16], in data set [1], the “IL2 levels released, compared to the effect of alpha-GalCer” value was “as effective as a-GalCer”.
As for `CCCCCCCCCCCCCCCCCCCCCCCCCC(=O)N[C@@H](CO[C@H]1OC(CO)[C@H](O)C(O)C1O)[C@H](O)[C@H](O)COCCCc1ccccc1` (stereo partly drawn) [Compound 15], the solubility in water entry in “Solubility in water” is on record as “soluble in water”.
For `CCCCCCCCCCCCCCCCCCCCCCCCCC(=O)N[C@@H](COC1OC(CO)C(O)C(O)C1O)[C@H](O)[C@H](O)COCCOCCCC` (stereo partly drawn) [Compound 13, (2S,3S,4R)-5-O-(2-butoxyetil)-2-(N-exacosanoylamino)-1-O-(α-D-galactopyranosyl)-1,3,4,5-pentanetetraol], the “IL2 levels released, compared to the effect of alpha-GalCer” value in data set [1] is given as “as effective as a-GalCer”.
